≈ marks a conversion by molar mass, not a printed value.
Legend:
Bacillus subtilis = assay: Resazurin microtiter MIC assay, activity against Bacillus subtilis; format: cell-based
Protocol: Bacillus subtilis ATCC 11775 was plated on agar from a 20% glycerol stock solution stored at −80° C. Inoculated plates were then incubated at 37° C. under aerobic conditions for 16 hours. Single cultures were transferred to Nutrient Broth (NB) and cultured for 16 hours under the same conditions. […] Second passage cultures were standardized to O.D.−600 nm=1.0. The resazurin microtiter assay procedure described by Palomino and coworkers is used for assessing antimicrobial activity (Palomino, 2002, Antimicrob. Agents Chemother. 46:2720-2722). The assay is performed in LB broth. Resazurin sodium salt powder is prepared in distilled water and filter sterilized at […] (w/v) for MIC assays and at 0.01%8.55). (w/v) for single concentration assays. Compounds are first screened in MIC assays to assess whether growth inhibition is dependent on inhibitor concentration. The plates are incubated for 30 min under aerobic conditions. Growth controls containing no inhibitory compound, sterility controls without inoculation, and controls containing a known antibiotic, chloramphenicol, are also included. The innoculum was prepared from second passage cultures in Nutrient Broth (NB) and standardized to O.D.−600 nm=1.0 and the wells inoculated with a 1:20 dilution. Serial two-fold dilutions of each compound in 100 μL of medium are prepared directly in 96 well plates at concentrations ranging from 250 μM to 7 μM. After incubation 30 μL of resazurin solution is added to each well and incubated for 30 min. A change in color from blue to pink indicates reduction of resazurin, and therefore bacterial growth. Minimum inhibitory concentration (MIC) was determined as the lowest drug concentration that prevented the color change from blue to pink. Inhibition was quantified by observation of color change. Further studies were carried out at a single inhibitor concentration of 250 μM. The plates were incubated for 4 h under aerobic conditions with the same controls. After incubation 30 μL of resazurin solution was added to each well and incubated for 60 min. Inhibition was quantified by fluorescence readings from plate reader SAFIRE, Firmware: V 2.20 08/02 Safire. Excitation wavelength set to 560 nm, emission wavelength set to 590 nm. Well containing dye and non-inoculated cells was used as gain set. Plates are held at 37° C. and fluorescence measurements are taken at 0, 5, 10, 20, 30, and 60 min after addition of dye. Lower fluorescence values correlate to greater degrees of inhibition. Compounds are tested […] for their capacity to inhibit B. subtilis growth. […] Briefly, second-passage bacteria are incubated with inhibitor in a 96-well plate for four hours, then resazurin dye is added and color/fluorescence change is observed. […] Resorufin is also fluorescent and can be measured by a plate-reader.

E. coli = settings: cited from earlier work
Streptococcus pneumoniae = assay: Resazurin microtiter MIC assay, activity against Streptococcus pneumoniae; format: cell-based
Protocol: The resazurin microtiter assay procedure described by Palomino and coworkers is used for assessing antimicrobial activity (Palomino, 2002, Antimicrob. Agents Chemother. 46:2720-2722). The assay is performed in LB broth. Resazurin sodium salt powder is prepared in distilled water and filter sterilized at […] (w/v) for MIC assays and at 0.01%8.55). (w/v) for single concentration assays. Compounds are first screened in MIC assays to assess whether growth inhibition is dependent on inhibitor concentration. The plates are incubated for 30 min under aerobic conditions. Growth controls containing no inhibitory compound, sterility controls without inoculation, and controls containing a known antibiotic, chloramphenicol, are also included. The innoculum was prepared from second passage cultures in Nutrient Broth (NB) and standardized to O.D.−600 nm=1.0 and the wells inoculated with a 1:20 dilution. Serial two-fold dilutions of each compound in 100 μL of medium are prepared directly in 96 well plates at concentrations ranging from 250 μM to 7 μM. After incubation 30 μL of resazurin solution is added to each well and incubated for 30 min. A change in color from blue to pink indicates reduction of resazurin, and therefore bacterial growth. Minimum inhibitory concentration (MIC) was determined as the lowest drug concentration that prevented the color change from blue to pink. Inhibition was quantified by observation of color change. Further studies were carried out at a single inhibitor concentration of 250 μM. The plates were incubated for 4 h under aerobic conditions with the same controls. After incubation 30 μL of resazurin solution was added to each well and incubated for 60 min. Inhibition was quantified by fluorescence readings from plate reader SAFIRE, Firmware: V 2.20 08/02 Safire. Excitation wavelength set to 560 nm, emission wavelength set to 590 nm. Well containing dye and non-inoculated cells was used as gain set. Plates are held at 37° C. and fluorescence measurements are taken at 0, 5, 10, 20, 30, and 60 min after addition of dye. Lower fluorescence values correlate to greater degrees of inhibition.

**Q.** For CCCCNC(=O)C(C1CCCCC1)N(C(=O)c1ccccc1C(F)(F)F)C1CCCCC1 (stereo not drawn) [vgka], which MIC (Bacillus subtilis) is on record?
**A.** 50 µM (≈ 23.3 µg/mL)

**Q.** For CC1=N[C@@H]2[C@@H](O)[C@H](O)[C@@H](CO)O[C@@H]2S1 [NAG-thiazoline], which “effect on the viability of E. coli” value (E. coli) is on record?
**A.** no effect

**Q.** What does the source list for CCCCNC(=O)C(C1CCCCC1)N(C(=O)c1ccccc1SC)c1ccccc1 (stereo not drawn) [sgqa]?
**A.** MIC (Streptococcus pneumoniae; 60 uM): 50 µM; MIC (Streptococcus pneumoniae; same MIC in mass units): 21.2 mg/L

**Q.** Which results are given for O=C(NC1CCCCC1)C(C1CCCCC1)N(C(=O)c1ccccc1C(F)(F)F)C1CCCCC1 (stereo not drawn) [vgkc]?
**A.** MIC (Streptococcus pneumoniae; 60 uM): 5 µM; MIC (Streptococcus pneumoniae; same MIC in mass units): 2.46 mg/L; MIC (Bacillus subtilis): 50 µM (≈ 24.6 µg/mL)

**Q.** For CCCCNC(=O)C(C1CCCCC1)N(C(=O)c1ccccc1OC)C1CCCCC1 (stereo not drawn) [qgka], which MIC (Bacillus subtilis) is on record?
**A.** 50 µM (≈ 21.4 µg/mL)

**Q.** For CCCCNC(=O)C(C1CCCCC1)N(C(=O)c1ccccc1C)C1CCCCC1 (stereo not drawn) [wgka], which MIC (Bacillus subtilis) is on record?
**A.** 50 µM (≈ 20.6 µg/mL)

**Q.** Which results are given for CCCCNC(=O)C(C1CCCCC1)N(C(=O)c1ccccc1C)c1ccccc1 (stereo not drawn) [wgqa]?
**A.** MIC (Streptococcus pneumoniae; 60 uM): 50 µM; MIC (Streptococcus pneumoniae; same MIC in mass units): 20.3 mg/L

**Q.** Which results are given for C#CCN(C(=O)c1ccccc1C(F)(F)F)C(C(=O)NCCCC)C1CCCCC1 (stereo not drawn) [vgba]?
**A.** MIC (Streptococcus pneumoniae; 60 uM): 50 µM; MIC (Streptococcus pneumoniae; same MIC in mass units): 21.1 mg/L

**Q.** For CCCCNC(=O)C(C1CCCCC1)N(C(=O)c1ccccc1OC(C)=O)C1CCCCC1 (stereo not drawn) [ygka], which MIC (Streptococcus pneumoniae; 60 uM) is on record?
**A.** 5 µM

**Q.** And the MIC (Streptococcus pneumoniae; same MIC in mass units)?
**A.** 2.33 mg/L

— patent US20200277251A1, “NOVEL ANTIBACTERIAL COMPOUNDS AND METHODS OF MAKING AND USING SAME” (BROWN UNIVERSITY, priority 2017, published 2020)
